Source: patent publication US9315496B2, “Benzopyrone derivative and use thereof” (HUAZHONG UNIVERSITY OF SCIENCE & TECHNOLOGY, priority 2011, dated 2016)
Where a name gives a salt, the structure may show the parent alone. Read-outs that look alike come from different tables or passages of the source.

Experiments:
5-HT1A receptor = biological target: T1, 5-HT1A receptor (Rattus norvegicus, UniProt P19327); test: 5HT1A receptor binding assay (3H-8-OH-DPAT, rat brain striatum membrane); settings: test compound final concentration 10^−5 M; 3H-8-OH-DPAT; rat brain striatum membrane
T1 sequence (P19327 1-422): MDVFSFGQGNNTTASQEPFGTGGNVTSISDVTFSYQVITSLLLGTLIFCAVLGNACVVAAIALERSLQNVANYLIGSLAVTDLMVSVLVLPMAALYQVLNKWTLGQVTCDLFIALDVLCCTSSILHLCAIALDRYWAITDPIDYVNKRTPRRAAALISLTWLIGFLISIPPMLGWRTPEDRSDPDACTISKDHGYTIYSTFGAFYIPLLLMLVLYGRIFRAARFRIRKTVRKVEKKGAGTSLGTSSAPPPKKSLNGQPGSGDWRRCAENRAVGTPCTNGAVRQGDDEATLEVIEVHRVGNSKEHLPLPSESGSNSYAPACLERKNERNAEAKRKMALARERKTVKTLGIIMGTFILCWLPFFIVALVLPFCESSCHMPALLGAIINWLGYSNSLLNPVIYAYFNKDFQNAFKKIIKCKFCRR
Method: Incubation at 37° C. was conducted for 10 min, the weight of the tubes were adjusted using a balance after incubation. […] Centrifugation was conducted and repeated 3 times.

dopamine D2 receptor = dopamine D2 receptor (Rattus norvegicus, UniProt P61169); test: D2 receptor binding assay (3H-Spiperone, rat brain striatum membrane); settings: read-out: D2 inhibition %
Method: Rats were sacrificed by cervical dislocation on ice. Brain striatum was rapidly taken, and 2 brain striatums were combined into a centrifuge tube, to which 3 ml of buffer (0.05 M Tris-HCl buffer, containing NaCl 120 mM, KCl 5 mM, MgCl2 1 mM, CaCl2 1 mM) was added, homogenization was conducted for 3-4 s at level 4 for four times, and then 5 ml of buffer was then added. The weight of the homogenized tubes were adjusted using a balance, and centrifugation was conducted at 12000 r, 4° C. for 20 min. The supernatant was discarded, and 3 ml of buffer was added (0.05 M Tris-HCl buffer, containing NaCl 120 mM, KCl 5 mM, MgCl2 1 mM, CaCl2 1 mM). Vortex mixer was used for blending, and then 5 ml of buffer was added (0.05 M Tris-HCl buffer, containing NaCl 120 mM, KCl 5 mM, MgCl2 1 mM, CaCl2 1 mM). Centrifugation was conducted (repeated 3 times). After the centrifugations, the supernatant was discarded, and the pellets were stored at −80° C. for future use.
Beckman LS-6500 Multi-function Liquid Scintillation Counter was used.
(1) The prepared membrane was first applied with appropriate amount of homogenized liquid, and homogenizer was used for evenly dispersing. 15 tubes were mixed into a 100 ml container, and appropriate amount of homogenized liquid was added to give 50 ml of membrane suspension, which was reserved for future use.
(2) 100 μL of membrane preparation and 100 μL of buffer were added into each reaction tube.
(3) 100 μL of homogenized liquid was added into the total binding tube (TB), 100 μL of Butaclamol (final concentration 10^−5 M) was added into the non-specific binding tube (NB), and 100 μL of the test compound (final concentration 10^−5 M) was added into the specific binding tube (SB) for each compound.
(5) Each of the reaction tubes was incubated at 37° C. for 20 min. After the reaction was completed, the bound ligands were rapidly filtered under reduced pressure, and the ice-chilled assay buffer was used for adequate washing. The filter was taken out and put into a 3 ml scintillation vial, and 2 ml of toluene scintillation solution was added and blended.
(6) The scintillation vials were put into Liquid Scintillation Counter for counting. Inhibitory rate(1%)=(Total binding tube cpm−compound cpm)/(Total binding tube cpm−non-specific binding tube cpm)×100%
Each assay for the compounds was conducted in duplicate.

5-HT2A receptor = 5-HT2A receptor (Rattus norvegicus, UniProt P14842); test: 5HT2A receptor binding assay ([3H]-Ketanserin, rat brain striatum membrane); settings: read-out: 5HT2A inhibition %
[1] = test compound final concentration 10^−5 M, [3H]-Ketanserin, rat brain striatum membrane

Chain of 5-HT2A receptor (P14842 whole entry): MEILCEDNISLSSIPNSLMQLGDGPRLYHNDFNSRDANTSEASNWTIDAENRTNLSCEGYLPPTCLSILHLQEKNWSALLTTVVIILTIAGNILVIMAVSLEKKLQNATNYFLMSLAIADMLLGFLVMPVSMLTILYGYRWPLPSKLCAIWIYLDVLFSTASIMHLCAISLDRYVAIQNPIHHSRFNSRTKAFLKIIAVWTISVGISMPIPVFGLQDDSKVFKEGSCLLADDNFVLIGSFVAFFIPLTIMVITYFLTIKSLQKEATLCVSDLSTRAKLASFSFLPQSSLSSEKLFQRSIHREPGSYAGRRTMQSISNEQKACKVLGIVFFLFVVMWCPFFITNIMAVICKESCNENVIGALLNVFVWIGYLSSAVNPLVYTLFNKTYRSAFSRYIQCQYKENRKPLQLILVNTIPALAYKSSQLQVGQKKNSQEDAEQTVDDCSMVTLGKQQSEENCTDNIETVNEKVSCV
Chain of dopamine D2 receptor (P61169 whole entry): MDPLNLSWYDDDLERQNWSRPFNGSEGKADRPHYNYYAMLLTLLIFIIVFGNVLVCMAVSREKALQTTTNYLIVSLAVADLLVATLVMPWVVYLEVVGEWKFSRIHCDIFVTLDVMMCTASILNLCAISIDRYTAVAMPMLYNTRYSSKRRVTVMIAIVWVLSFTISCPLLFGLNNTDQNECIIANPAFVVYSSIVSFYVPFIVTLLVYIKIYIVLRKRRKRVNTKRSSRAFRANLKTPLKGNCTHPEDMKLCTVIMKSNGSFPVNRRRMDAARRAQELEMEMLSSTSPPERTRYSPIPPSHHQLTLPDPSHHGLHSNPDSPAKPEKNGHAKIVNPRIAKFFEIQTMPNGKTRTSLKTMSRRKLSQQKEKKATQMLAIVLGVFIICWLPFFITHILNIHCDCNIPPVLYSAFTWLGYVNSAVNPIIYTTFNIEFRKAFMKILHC

Structure (SMILES)	inhibition at 10 µM (5-HT1A receptor) [%]	inhibition at 10 µM (dopamine D2 receptor) [%]	inhibition at 10 µM (5-HT2A receptor; [1]) [%]	melting point [°C]	inhibition at 10 µM (5-HT2A receptor) [%]
O=C1CC(c2ccccc2)c2ccc(OCCCCN3CCC(c4noc5cc(F)ccc45)CC3)cc2O1 (stereo not drawn) [Compound 34]	5.9	120	115	–	–
Cc1cc(=O)oc2cc(OCCCCCN3CCC(c4noc5cc(F)ccc45)CC3)ccc12 [Compound 9, 7-(5-(4-(3-(6-fluoro-benzisoxazole)-1-piperidyl)-n-pentyloxy))-4-methyl-2H-benzopyran-2-one]	88.8	102	120	119 to 121	–
O=c1cc(-c2ccccc2)c2ccc(OCC(O)CN3CCC(c4noc5cc(F)ccc45)CC3)cc2o1 (stereo not drawn) [Compound 33, 7-(3-(4-(3-(6-fluoro-benzisoxazole)-1-piperidyl)-2-hydroxylpropoxy))-4-phenyl-2H-benzopyran-2-one]	23.5	110	129	193 to 195	–
CCc1cc(=O)oc2cc(OCCCCN3CCC(c4noc5cc(F)ccc45)CC3)ccc12 [Compound 27, 7-(4-(4-(3-(6-fluoro-benzisoxazole)-1-piperidyl)-n-butoxy))-4-ethyl-2H-benzopyran-2-one]	65.7	84	124	–	–
O=c1cc(C(F)(F)F)c2ccc(OCCCN3CCN(c4nsc5ccccc45)CC3)cc2o1 [Compound 16, 7-(3-(4-(3-(1,2-benzisothiazole)-1-piperazinyl)-n-propoxy))-4-(trifluoromethyl)-2H-benzopyran-2-one]	104	115	96.3	–	–
O=c1cc(-c2ccccc2)c2ccc(OCCCCN3CCC(c4noc5cc(F)ccc45)CC3)cc2o1 [Compound 13, 7-(4-(4-(3-(6-fluoro-benzisoxazole)-1-piperidyl)-n-butoxy))-4-phenyl-2H-benzopyran-2-one]	111	65.2	–	–	67.2
Cc1c(C)c2ccc(OCCCCN3CCC(c4noc5cc(F)ccc45)CC3)cc2oc1=O [Compound 29, 7-(4-(4-(3-(6-fluoro-benzisoxazole)-1-piperidyl)-n-butoxy))-3,4-dimethyl-2H-benzopyran-2-one]	97.1	43.2	24.7	106 to 108	–
O=c1ccc2ccc(OCCCCN3CCN(c4nsc5ccccc45)CC3)cc2o1 [Compound 2, 7-(4-(4-(3-(1,2-benzisothiazole)-1-piperazinyl)-n-butoxy))-2H-benzopyran-2-one]	99.4	80.6	103	–	–
CCCc1cc(=O)oc2cc(OCCCCN3CCN(c4nsc5ccccc45)CC3)ccc12 [Compound 26, 7-(4-(4-(3-(1,2-benzisothiazole)-1-piperazinyl)-n-butoxy))-4-n-propyl-2H-benzopyran-2-one]	99.7	61.9	129	–	–
O=c1cc(-c2ccccc2)c2ccc(OCCCN3CCN(c4nsc5ccccc45)CC3)cc2o1 (as salt: hydrochloride) [Compound 12, 7-(3-(4-(3-(1,2-benzisothiazole)-1-piperazinyl)-n-propoxy))-4-phenyl-2H-benzopyran-2-one]	–	–	–	96 to 98	–
O=c1ccc2ccc(OCCCCN3CCN(c4nsc5ccccc45)CC3)cc2o1 (as salt: hydrochloride) [Compound 2, 7-(4-(4-(3-(1,2-benzisothiazole)-1-piperazinyl)-n-butoxy))-2H-benzopyran-2-one]	–	–	–	103 to 105	–
O=c1cc(C(F)(F)F)c2ccc(OCCCN3CCN(c4nsc5ccccc45)CC3)cc2o1 (as salt: hydrochloride) [Compound 16, 7-(3-(4-(3-(1,2-benzisothiazole)-1-piperazinyl)-n-propoxy))-4-(trifluoromethyl)-2H-benzopyran-2-one]	–	–	–	103 to 105	–
